This is an account of results in US20230011052A1, “METHOD AND COMPOSITIONS FOR REGULATED ARMORING OF CELLS” (Senti Biosciences, Inc., priority 2019, published 2023).

Values joined by “and” are separate entries in the source; they are usually repeats but may differ in a detail not shown here. Identical values can stand only once. Like-named read-outs stand apart in the source and are kept apart here.

One data set deals with T1, ERT2 domain (Homo sapiens, UniProt P03372, G400V/L544A/M543A).
T1 construct: expressed in transfected cells; host or cells: CD4/CD8 T cells, virally transduced
T1 sequence (P03372 311-547 G400V/M543A/L544A limits assumed): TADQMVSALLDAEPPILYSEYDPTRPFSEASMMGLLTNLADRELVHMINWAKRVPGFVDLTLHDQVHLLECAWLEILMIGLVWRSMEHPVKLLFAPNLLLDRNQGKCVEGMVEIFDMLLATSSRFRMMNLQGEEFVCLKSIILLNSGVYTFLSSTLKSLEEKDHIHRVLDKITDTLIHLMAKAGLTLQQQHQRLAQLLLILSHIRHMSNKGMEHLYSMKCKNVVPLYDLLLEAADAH
Put plainly: Tamoxifen (ERT2) regulatable TF reporter and CAR expression in T cells (MFI). The following applies: T cells with ERT2 regulatable TF 565 and reporter alone (1066) or on construct also encoding a CAR (2235); 1, 0.25, 0.1 uM or no drug; Day 9 MFI. The class given is cell-based. The source says:
Various regulatable TF (also referred to as an activation-conditional control polypeptide (ACP) for drug-inducible formats or “synTF”) and expression cassettes were constructed as shown in FIG. 17A. […] The cassettes were cloned into a viral vector and used to produce virus.
On Day 0, CD4/CD8 T cells (FL00711) were thawed and activated with Dynabeads (3:1) in complete T cell media (Optimizer+Supplements—Gibco+5% human serum)+IL-2 (100 Units/ml). On Day 2, cells were transduced with 1×10^5 GV of virus. […] Florescent median intensity (MFI) was assessed of Day 9.

Data set [1] relates to T cells engineered with drug-inducible ACP (NS3/NS4 protease cleavage site). Put plainly: In vivo regulated armoring: plasma hIL-12 (Luminex) and circulating human T cells (flow cytometry). The note with it: 25 mg/kg Grz IP, BID; T cells with SB01845 & SB02357. Further details: species or system NSG mice. As for the experimental part:
Negative controls were untransduced T cells. […] Dosing: Drug treated mice received 25 mg/kg Grz at each dosing time point; vehicle treated mice received equivalent volume of vehicle; all Grz dosing administered IP. Dosing continued BID on days 2-4. […] Mice were bled on day 4 and sacrificed/bled on day 5.
On the technique in general: A flow cytometer gives signals particle by particle.

For data set [2], the system named is T cells engineered with drug-inducible ACP (inducible IL-12). In kind it is in vivo. The note with it: for Human T cells in the blood (hCD3+: hCD45+): inducible IL-12 T cells, individual mice. As for the experimental part:
Negative controls were untransduced T cells. […] All Grz dosing was administered IP.
A first series of Grazoprevir (Grz) dosing regimens were assessed, as described in Table 25.

In a further data set the test system is target cells. As to the kind of experiment: T cell killing assay (LDH release). In kind it is cell-based. The note with it: +/- 2 μM GRZ for 48 hours. As for the experimental part:
For T cell killing assays, on Day 0 T cells were seeded at 1e6/mL+/−2 μM of GRZ for 48 hours to induce payload. On Day 2, target cells were counted and 35K were seeded per well in a 96 well plate for 4-6 hrs in target cell media. Then target cell media was removed and T cells were counted and 35K CAR normalized T cells were seeded [E:T— 1:1] in 200 µl of Optimizer media overnight. On Day 3, cells were transferred to a V-bottom plate, spun down, and supernatant harvested to determine killing activity using an LDH assay (CyQUANT LDH Cytotoxicity Assay; Life Technologies).
Background: LDH leaks from cells whose membrane has failed.

For data set [3], the system named is T cells engineered with drug-inducible ACP (inducible IL-12).
Method: Grazoprevir potassium salt was dissolved sequentially in DMSO, PEG400, and PBS to reach 10 mg/mL. All Grz dosing was administered IP. 20e6 T cells per mouse were injected by tail vein injection, as indicated. Luminex assay was run to assess levels of hIL-12 in mouse plasma. Presence of human T cells in mouse blood was analyzed by flow cytometry.
Following the results of the experiments above, animals were dosed (IP) 60 mg/kg for 3 days once a day. Recombinant (hIL-2 1×10^4 IU) was also administered as indicated.

On to `CC/C(=C(\c1ccccc1)c1ccc(OCCNC)cc1)c1ccccc1` [N-desmethyltamoxifen], for which the “reporter (mCherry) expression” value on ERT2 domain was “did not result expression of the reporter”.
On to `C=C[C@@H]1C[C@]1(NC(=O)[C@@H]1C[C@@H]2CN1C(=O)[C@H](C(C)(C)C)NC(=O)O[C@@H]1C[C@H]1CCCCCc1nc3ccc(OC)cc3nc1O2)C(=O)NS(=O)(=O)C1CC1.O` [grazoprevir], for which the “hIL-12 in the plasma of mice above vehicle” value in data set [1] is recorded as around 100 fold. The “Human T cells in the blood (hCD3+: hCD45+)” value was 5.42 % of live cells and 0.08 % of live cells and 4.07 % of live cells and 3.61 % of live cells and 3.88 % of live cells and 5.91 % of live cells and 4.2 % of live cells and 3.14 % of live cells in data set [2] (Day 4, 25 mg/kg BID Grz IP, 25 mg/kg); 4.09 % of live cells and 2.96 % of live cells and 3.7 % of live cells and 1.62 % of live cells and 4.16 % of live cells and 2.57 % of live cells and 4.55 % of live cells and 2.58 % of live cells in data set [2] (Day 4, 50 mg/kg Grz IP, 50 mg/kg); 2.95 % of live cells and 3.14 % of live cells and 2.6 % of live cells and 0* % of live cells (2×) and 2.41 % of live cells and 1.43 % of live cells and 2.87 % of live cells in data set [2] (Day 4, 75 mg/kg Grz IP, 75 mg/kg); 2.18 % of live cells and 6.98 % of live cells and 6.53 % of live cells and 13 % of live cells and 2.24 % of live cells and 4.72 % of live cells and 5.64 % of live cells and 7.89 % of live cells in data set [2] (Day 4, 25 + 50 mg/kg Grz IP, 50 mg/kg); 6.78 % of live cells and 0.077 % of live cells and 3.63 % of live cells and 2.46 % of live cells and 2.07 % of live cells and 3.45 % of live cells and 2.27 % of live cells and 4.09 % of live cells in data set [2] (Day 8, 25 mg/kg BID Grz IP, 25 mg/kg); 7.36 % of live cells and 10.9 % of live cells and 7.31 % of live cells and 8.1 % of live cells and 9.23 % of live cells and 5.88 % of live cells and 6.63 % of live cells and 7.34 % of live cells in data set [2] (Day 8, 50 mg/kg Grz IP, 50 mg/kg). Moreover, the “Human T cells in the blood (hCD3+: hCD45+)” value in data set [2] (Day 8, 75 mg/kg Grz IP, 75 mg/kg) was 8.19 % of live cells and 9.67 % of live cells and 6.55 % of live cells and 0.028 % of live cells and 11.6 % of live cells and 4.7e−003 % of live cells and 11 % of live cells and 3.79 % of live cells; in data set [2] (Day 8, 25 + 50 mg/kg Grz IP, 50 mg/kg), 7.09 % of live cells and 7.85 % of live cells and 9 % of live cells and 12 % of live cells and 6.34 % of live cells and 7.02 % of live cells and 8.65 % of live cells and 5.04 % of live cells; in data set [2] (Day 12, 25 mg/kg BID Grz IP, 25 mg/kg) it was 13.5 % of live cells and 0.21 % of live cells and 13.3 % of live cells and 9.36 % of live cells and 9.33 % of live cells and 14 % of live cells and 16.1 % of live cells and 13.8 % of live cells; in data set [2] (Day 12, 25 + 50 mg/kg Grz IP, 50 mg/kg), 10.9 % of live cells and 12.2 % of live cells and 11.1 % of live cells and 16.3 % of live cells and 2.61 % of live cells and 9.13 % of live cells. In addition, the “serum IL-12 levels” value was “returned to baseline” in data set [2] (Day 8) and “remained stable” in data set [2] (Day 12). The mice found dead in data set [2] (Day 12) is given as 2 of 8. In addition, the “difference in killing in the presence or absence of grazoprevir” value in the data set with target cells is “No noticeable differences in killing”. Also, in data set [3] (60 mg/kg IP, these mice received only 30 mg/kg on day 3), the “mice that lost ~15% weight during the first week of dosing” value is given as 3 of 10. For the same compound, the “plasma IL-12” value in data set [3] (Day 4, first on week) is “significant Grazoprevir dose dependent induction of IL-12”; in data set [3] (Day 18, second on week), “further significant Grazoprevir dose dependent induction of IL-12”. In data set [3] (Day 4, 60 mg/kg IP once a day for 3 days), the “injected human T cells in blood when Grz was administered” value was “significantly less”. In addition, in data set [3] (Day 11, off week), the “plasma IL-12 levels between drug and no-drug groups” value was “equivalent”. Also, the “injected human T cells in blood, inducible system groups with vs without Grz” value in data set [3] (Days 11, 18, and 25) is reported as “no difference”. Besides, in data set [3] (necropsy), the “organ findings at end time point” value was “pale kidneys, thick diaphragm, enlarged spleen, thick liver lobe, white/yellow lump growing inside the liver, and organs (liver, stomach, spleen) sticking with peritoneal wall and each other”. In addition, the body weight result in data set [3] (time course) is on record as “transient weight loss”.
